Molecules are shown by their SMILES. In brackets after ≈: the same amount, converted by molar mass. Like-named read-outs stand apart in the source and are kept apart here. Starred links: 1 amine or outer side, 2 acyl side, 3 side chain; linkers in the order of their positions; H or OH if unused. Positions of bridges follow the written chain, without caps; N, C: chain ends. Residues, ends and D or L forms follow the SMILES beside them. *: point of attachment. C18 diacid = O=C(O)CCCCCCCCCCCCCCCCC(=O)*; γGlu = O=C(O)[C@H](CCC(=O)[*:2])N[*:1]; AEEA = NCCOCCOCC(=O)O

A short description of this data set: Solubility of CNP compounds at pH 4.0 and pH 6.5. It is filed as physicochemical. On the procedure:
In order to assess the suitability of CNP compounds for a soluble liquid formulation, the solubility of CNP compounds in pharmaceutically relevant buffers were measured. Solubility at two different pH-levels (pH 4.0 and pH 6.5) was examined as pH is expected to affect solubility.
Preparation of pH 4.0 samples: The pH 4.0 samples of the CNP compounds were prepared by mixing freeze dried peptide with a pH 4.0 5 mM sodium acetate, 250 mM glycerol buffer at room temperature to a nominal concentration of at least 4000-5000 nmol/mL. The pH of the samples was measured and adjusted to pH 4.0 and the samples were allowed to equilibrate at room temperature until next day if not fully dissolved.
Preparation of pH 6.5 samples: The pH 6.5 samples of the CNP compounds were prepared by dissolving the freeze dried peptide in water. While stirring, a part of the peptide solution was transferred to a buffer consisting of 41 mM sodium phosphate and 118 mg/mL glycerol, pH 7.5-8.0, followed by addition of diluted sodium hydroxide followed by another part of the peptide solution and further addition of diluted sodium hydroxide. This procedure was repeated until all of the peptide solution had been added where a nominal concentration of at least 4000-5000 nmol/mL had been reached and the buffer composition was 8 mM sodium phosphate, 23 mg/mL glycerol. The pH of the samples were measured and adjusted to pH 6.5 and the samples were allowed to equilibrate at room temperature until next day if not fully dissolved.
Procedure: Samples at pH 4.0 were prepared as described above and the compound concentration in the supernatant was determined using CAD (Method F, CAD02).
Samples at pH 6.5 were prepared as described above and peptide concentration in the supernatant was determined by CAD (Method F, CAD02).

[1] abbreviates: 8 mM sodium phosphate, 23 mg/mL glycerol, pH 6.5, room temperature, read-out: Solubility at pH 6.5.

Usually solubility stands for the dissolved amount per volume that the medium holds. `CC[C@H](C)[C@@H]1NC(=O)[C@H](CCCNC(=N)N)NC(=O)[C@H](CC(=O)O)NC(=O)[C@H](CC(C)C)NC(=O)[C@@H]2CCCN2C(=O)[C@H](CC(C)C)NC(=O)CNC(=O)[C@H](Cc2ccccc2)NC(=O)[C@@H](NC(=O)CNC(=O)[C@H](CCC(N)=O)NC(=O)[C@H](CO)NC(=O)[C@H](CC(C)C)NC(=O)CNC(=O)[C@H](CCCCN)NC(=O)[C@H](CCCCN)NC(=O)[C@H](CCC(N)=O)NC(=O)[C@H](C)NC(=O)CNC(=O)[C@H](CCCCN)NC(=O)[C@H](Cc2ccc(O)cc2)NC(=O)[C@H](CCCCN)NC(=O)[C@H](CCCNC(=N)N)NC(=O)[C@H](C)NC(=O)[C@H](CCC(N)=O)NC(=O)[C@@H]2CCCN2C(=O)[C@H](Cc2c[nH]cn2)NC(=O)[C@H](CCC(=O)O)NC(=O)[C@H](CCC(N)=O)NC(=O)COCCOCCNC(=O)COCCOCCNC(=O)CC[C@H](NC(=O)CC[C@H](NC(=O)CC[C@H](NC(=O)CC[C@H](NC(=O)CC[C@H](NC(=O)CC[C@H](NC(=O)CCCCCCCCCCCCCCCCC(=O)O)C(=O)O)C(=O)O)C(=O)O)C(=O)O)C(=O)O)C(=O)O)CSSC[C@@H](C(=O)O)NC(=O)CNC(=O)[C@H](CC(C)C)NC(=O)CNC(=O)[C@H](CO)NC(=O)[C@H](CC(C)C)NC(=O)[C@H](CO)NC(=O)CNC1=O` [compound 1402] ({C18 diacid-γGlu-γGlu-γGlu-γGlu-γGlu-γGlu-AEEA-AEEA}-QEHPQARKYKGAQKKGLSQGCFGLPLDRIGSLSGLGC-OH; disulfide 21-37): under setting [1], the solubility was found to be 10 mM (≈ 53 mg/mL).
For `CC[C@H](C)[C@@H]1NC(=O)[C@H](CCCNC(=N)N)NC(=O)[C@H](CC(=O)O)NC(=O)[C@H](CC(C)C)NC(=O)[C@@H]2CCCN2C(=O)[C@H](CC(C)C)NC(=O)CNC(=O)[C@H](Cc2ccccc2)NC(=O)[C@@H](NC(=O)CNC(=O)[C@H](CCC(N)=O)NC(=O)[C@H](CO)NC(=O)[C@H](CC(C)C)NC(=O)CNC(=O)[C@H](CCCCN)NC(=O)[C@H](CCCCN)NC(=O)[C@H](CCC(N)=O)NC(=O)[C@H](C)NC(=O)CNC(=O)[C@H](CCCCN)NC(=O)[C@H](Cc2ccc(O)cc2)NC(=O)[C@H](CCCCN)NC(=O)[C@H](CCCNC(=N)N)NC(=O)[C@H](C)NC(=O)[C@H](CCC(N)=O)NC(=O)[C@@H]2CCCN2C(=O)[C@H](Cc2c[nH]cn2)NC(=O)[C@H](CCC(=O)O)NC(=O)[C@H](CCC(N)=O)NC(=O)COCCOCCNC(=O)COCCOCCNC(=O)COCCOCCNC(=O)COCCOCCNC(=O)CC[C@H](NC(=O)CC[C@H](NC(=O)CC[C@H](NC(=O)CC[C@H](NC(=O)CC[C@H](NC(=O)CC[C@H](NC(=O)CCCCCCCCCCCCCCCCC(=O)O)C(=O)O)C(=O)O)C(=O)O)C(=O)O)C(=O)O)C(=O)O)CSSC[C@@H](C(=O)O)NC(=O)CNC(=O)[C@H](CC(C)C)NC(=O)CNC(=O)[C@H](CO)NC(=O)[C@H](CC(C)C)NC(=O)[C@H](CO)NC(=O)CNC1=O` [compound 1404] ({C18 diacid-γGlu-γGlu-γGlu-γGlu-γGlu-γGlu-AEEA-AEEA-AEEA-AEEA}-QEHPQARKYKGAQKKGLSQGCFGLPLDRIGSLSGLGC-OH; disulfide 21-37), the solubility under setting [1] amounted to 6.88 mM (≈ 38.4 mg/mL).
On the same count and under the same terms, for `CC[C@H](C)[C@@H]1NC(=O)[C@H](CCCNC(=N)N)NC(=O)[C@H](CC(=O)O)NC(=O)[C@H](CC(C)C)NC(=O)[C@@H]2CCCN2C(=O)[C@H](CC(C)C)NC(=O)CNC(=O)[C@H](Cc2ccccc2)NC(=O)[C@@H](NC(=O)CNC(=O)[C@H](CCC(N)=O)NC(=O)[C@H](CO)NC(=O)[C@H](CC(C)C)NC(=O)CNC(=O)[C@H](CCCCN)NC(=O)[C@H](CCCCN)NC(=O)[C@H](CCC(N)=O)NC(=O)[C@H](C)NC(=O)CNC(=O)[C@H](CCCCN)NC(=O)[C@H](Cc2ccc(O)cc2)NC(=O)[C@H](CCCCN)NC(=O)[C@H](CCCNC(=N)N)NC(=O)[C@H](C)NC(=O)[C@H](CCC(N)=O)NC(=O)[C@@H]2CCCN2C(=O)[C@H](Cc2c[nH]cn2)NC(=O)[C@H](CCC(=O)O)NC(=O)[C@H](CCC(N)=O)NC(=O)COCCOCCNC(=O)COCCOCCNC(=O)COCCOCCNC(=O)COCCOCCNC(=O)CC[C@H](NC(=O)CC[C@H](NC(=O)CC[C@H](NC(=O)CC[C@H](NC(=O)CC[C@H](NC(=O)CCCCCCCCCCCCCCCCC(=O)O)C(=O)O)C(=O)O)C(=O)O)C(=O)O)C(=O)O)CSSC[C@@H](C(=O)O)NC(=O)CNC(=O)[C@H](CC(C)C)NC(=O)CNC(=O)[C@H](CO)NC(=O)[C@H](CC(C)C)NC(=O)[C@H](CO)NC(=O)CNC1=O` [compound 1406] ({C18 diacid-γGlu-γGlu-γGlu-γGlu-γGlu-AEEA-AEEA-AEEA-AEEA}-QEHPQARKYKGAQKKGLSQGCFGLPLDRIGSLSGLGC-OH; disulfide 21-37) the value was 5.67 mM (≈ 30.9 mg/mL).
Take `CC[C@H](C)[C@@H]1NC(=O)[C@H](CCCNC(=N)N)NC(=O)[C@H](CC(=O)O)NC(=O)[C@H](CC(C)C)NC(=O)[C@@H]2CCCN2C(=O)[C@H](CC(C)C)NC(=O)CNC(=O)[C@H](Cc2ccccc2)NC(=O)[C@@H](NC(=O)CNC(=O)[C@H](CO)NC(=O)[C@H](CO)NC(=O)[C@@H](NC(=O)CNC(=O)[C@H](CCCCN)NC(=O)[C@H](CCCCN)NC(=O)[C@H](CCC(N)=O)NC(=O)[C@H](C)NC(=O)CNC(=O)[C@H](Cc2c[nH]cn2)NC(=O)[C@H](Cc2ccc(O)cc2)NC(=O)[C@H](CCCCN)NC(=O)[C@H](CCCNC(=N)N)NC(=O)[C@H](C)NC(=O)COCCOCCNC(=O)COCCOCCNC(=O)CC[C@H](NC(=O)CC[C@H](NC(=O)CC[C@H](NC(=O)CCCCCCCCCCCCCCCCC(=O)O)C(=O)O)C(=O)O)C(=O)O)C(C)C)CSSC[C@@H](C(=O)O)NC(=O)CNC(=O)[C@H](CC(C)C)NC(=O)CNC(=O)[C@H](CO)NC(=O)[C@H](CC(C)C)NC(=O)[C@H](CO)NC(=O)CNC1=O` [compound 1422] ({C18 diacid-γGlu-γGlu-γGlu-AEEA-AEEA}-ARKYHGAQKKGVSSGCFGLPLDRIGSLSGLGC-OH; disulfide 16-32): under “5 mM sodium acetate, 250 mM glycerol, pH 4.0, room temperature, read-out: Solubility at pH 4.0”, the solubility was determined as 8.29 mM (≈ 35.1 mg/mL).
For the compound `CC[C@H](C)[C@@H]1NC(=O)[C@H](CCCNC(=N)N)NC(=O)[C@H](CC(=O)O)NC(=O)[C@H](CC(C)C)NC(=O)[C@@H]2CCCN2C(=O)[C@H](CC(C)C)NC(=O)CNC(=O)[C@H](Cc2ccccc2)NC(=O)[C@@H](NC(=O)CNC(=O)[C@H](CCC(N)=O)NC(=O)[C@H](CO)NC(=O)CNC(=O)CNC(=O)[C@H](CCCCN)NC(=O)[C@H](Cc2c[nH]cn2)NC(=O)[C@H](CCC(N)=O)NC(=O)[C@H](C)NC(=O)CNC(=O)[C@H](CCC(=O)O)NC(=O)[C@H](Cc2ccc(O)cc2)NC(=O)[C@H](CCCCN)NC(=O)[C@H](CCCNC(=N)N)NC(=O)[C@H](C)NC(=O)COCCOCCNC(=O)COCCOCCNC(=O)COCCOCCNC(=O)COCCOCCNC(=O)CC[C@H](NC(=O)CC[C@H](NC(=O)CCCCCCCCCCCCCCCCC(=O)O)C(=O)O)C(=O)O)CSSC[C@@H](C(=O)O)NC(=O)CNC(=O)[C@H](CC(C)C)NC(=O)CNC(=O)[C@H](CO)NC(=O)[C@H](CC(C)C)NC(=O)[C@H](CO)NC(=O)CNC1=O` [compound 1432] ({C18 diacid-γGlu-γGlu-AEEA-AEEA-AEEA-AEEA}-ARKYEGAQHKGGSQGCFGLPLDRIGSLSGLGC-OH; disulfide 16-32), the solubility under setting [1] was determined as 9.83 mM (≈ 43.2 mg/mL).
Still for that read-out and setting: for `CC[C@H](C)[C@@H]1NC(=O)[C@H](CCCNC(=N)N)NC(=O)[C@H](CC(=O)O)NC(=O)[C@H](CC(C)C)NC(=O)[C@@H]2CCCN2C(=O)[C@H](CC(C)C)NC(=O)CNC(=O)[C@H](Cc2ccccc2)NC(=O)[C@@H](NC(=O)CNC(=O)[C@H](CCC(N)=O)NC(=O)[C@H](CO)NC(=O)[C@H](CC(C)C)NC(=O)CNC(=O)[C@H](CCCCN)NC(=O)[C@H](CCCCN)NC(=O)[C@H](CCC(N)=O)NC(=O)[C@H](C)NC(=O)CNC(=O)[C@H](CCCCN)NC(=O)[C@H](Cc2ccc(O)cc2)NC(=O)[C@H](CCCCN)NC(=O)[C@H](CCCNC(=N)N)NC(=O)[C@H](C)NC(=O)COCCOCCNC(=O)COCCOCCNC(=O)CC[C@H](NC(=O)CC[C@H](NC(=O)CC[C@H](NC(=O)CC[C@H](NC(=O)CC[C@H](NC(=O)CCCCCCCCCCCCCCCCC(=O)O)C(=O)O)C(=O)O)C(=O)O)C(=O)O)C(=O)O)CSSC[C@@H](C(=O)O)NC(=O)CNC(=O)[C@H](CC(C)C)NC(=O)CNC(=O)[C@H](CO)NC(=O)[C@H](CC(C)C)NC(=O)[C@H](CO)NC(=O)CNC1=O` [compound 1453] ({C18 diacid-γGlu-γGlu-γGlu-γGlu-γGlu-AEEA-AEEA}-ARKYKGAQKKGLSQGCFGLPLDRIGSLSGLGC-OH; disulfide 16-32) the value was 7.88 mM (≈ 35.8 mg/mL).

The record behind these values is patent publication US20240209028A1, “CNP COMPOUNDS” (priority 2022, published 2024).
